“And” between values parts separate entries of the source, which are not always exact repeats. Identical values can stand only once. “Also recorded” adds a separate entry of the source.
Key:
Type in all cases: cell-based
SLC1A1 (EAAT3) = biological target: T1, SLC1A1 (EAAT3) (Homo sapiens, UniProt P43005); experiment: TEVC in oocytes expressing glutamate transporter; settings: EAAT3 (SLC1A1); 10 µM L-glu current, TEVC; read-out: IC50, block of glutamate current
T1 construct: expressed in transfected cells; host or cells: Xenopus laevis oocytes (cRNA injection)
T1 sequence (P43005 1-524): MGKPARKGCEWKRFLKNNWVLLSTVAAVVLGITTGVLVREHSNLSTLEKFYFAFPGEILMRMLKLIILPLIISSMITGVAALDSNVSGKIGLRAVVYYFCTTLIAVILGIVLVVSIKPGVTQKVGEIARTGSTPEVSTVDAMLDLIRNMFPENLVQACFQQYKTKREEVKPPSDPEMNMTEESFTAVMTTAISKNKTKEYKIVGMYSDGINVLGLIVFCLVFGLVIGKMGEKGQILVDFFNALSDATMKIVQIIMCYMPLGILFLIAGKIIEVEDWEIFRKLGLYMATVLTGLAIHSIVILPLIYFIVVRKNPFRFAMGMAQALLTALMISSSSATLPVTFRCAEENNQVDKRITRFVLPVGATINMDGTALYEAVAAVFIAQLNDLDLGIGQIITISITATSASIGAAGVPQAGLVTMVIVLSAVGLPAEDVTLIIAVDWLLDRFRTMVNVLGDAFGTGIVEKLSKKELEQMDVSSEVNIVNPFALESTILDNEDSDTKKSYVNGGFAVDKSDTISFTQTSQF
Protocol: (§1) Additionally, 4-HP applied at 1 mM was used to assess activity at the glutamate transporters SLC1A3 or SLC1A1.
(§2) BPOHP activity was evaluated against the glutamate transporters paralogs within the SLC1A gene family (SLC1A 1–3) as well as at neutral amino acid transporters that share common ligand substrates with the SLC1 family including SLC38A1,2, and 4 (ATA1, ATA2, ATA3) and heteromeric transporters SLC7A10+SLC3A2 (asc-1/4f2).
(§3) Uptake was halted by washing 3 times with 4 °C ND96 buffer. Oocytes were then lysed in 0.1% Triton X-100, and radioactivity was counted via liquid scintillation. Dose response curves were generated by fitting fractional inhibition (I) to the expression I = Imax × [inhibitor]/([inhibitor] + IC50).
(§4) Two-electrode voltage clamp (TEVC) transporter currents were recorded with a GeneClamp 500 amplifier and Digidata 1320A analog–digital interface (Molecular Devices, San Jose, CA, USA). Electrodes (0.2–1.0 MΩ) were filled with 3M KCl and the recording chamber was grounded with an agar bridge. Data were acquired with Axograph (v1.7.6) and LabChart (v7) and analyzed with Kaleidagraph software (v4.1) (Synergy, Reading, PA, USA). Uncoupled anion currents associated with the transport of substrate and block of SLC1A4 or SLC1A5 mediated leak conductance were recorded in the presence of Ringer with 50% substitution of NaCl by NaSCN to amplify the non-transported anion conductance.
(§5) Figure SM-2 TEVC from oocytes expressing SLC1A1-3 transporters.
(§6) (1 picture or pasted object on this page, not shown here)

SLC1A3 (EAAT1) = biological target: T2, SLC1A3 (EAAT1) (Homo sapiens, UniProt P43003); experiment: TEVC in oocytes expressing glutamate transporter; settings: EAAT1 (SLC1A3); 10 µM L-glu current, TEVC; read-out: IC50, block of glutamate current
T2 construct: expressed in transfected cells; host or cells: Xenopus laevis oocytes (cRNA injection)
Protocol: as §1, §2, §3, §4, §5, §6

SLC38A4 (ATA3) = biological target: T3, SLC38A4 (ATA3) (Homo sapiens, UniProt Q969I6); experiment: TEVC electrogenic coupled currents in oocytes; settings: 100 µM L-alanine, 3 µM BPOHP
T3 construct: expressed in transfected cells; host or cells: Xenopus laevis oocytes (cRNA injection)
T3 sequence (Q969I6 1-547): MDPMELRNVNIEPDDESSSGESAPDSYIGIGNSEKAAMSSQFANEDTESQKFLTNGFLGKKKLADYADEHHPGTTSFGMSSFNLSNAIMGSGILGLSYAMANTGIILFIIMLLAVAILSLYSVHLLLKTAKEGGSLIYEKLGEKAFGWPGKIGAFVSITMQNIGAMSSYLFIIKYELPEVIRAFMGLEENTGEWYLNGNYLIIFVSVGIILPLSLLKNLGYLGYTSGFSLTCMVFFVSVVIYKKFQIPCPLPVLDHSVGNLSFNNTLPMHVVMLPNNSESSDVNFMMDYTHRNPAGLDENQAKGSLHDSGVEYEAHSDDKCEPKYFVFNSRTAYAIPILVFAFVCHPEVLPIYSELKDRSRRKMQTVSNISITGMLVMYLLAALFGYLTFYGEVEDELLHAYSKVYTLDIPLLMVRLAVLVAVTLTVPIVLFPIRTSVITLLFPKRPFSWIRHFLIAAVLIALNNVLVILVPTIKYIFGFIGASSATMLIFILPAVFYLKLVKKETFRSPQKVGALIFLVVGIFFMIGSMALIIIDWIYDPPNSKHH
Protocol: as §2, with “(asc-1/4f2). […] Finally, radiolabeled [^3H]D-serine uptake was used to assess the electroneutral SLC7A10+SLC3A2 transporter, in which 10 µM BPOHP had no effect (Figure S3).” for “(asc-1/4f2).”
as §3
as §4, with “Electrodes (0.2–1.0 MΩ) were filled with 3M KCl and the recording chamber was grounded with an agar bridge.” left out, “conductance. […]” for “conductance.”

SLC1A2 (EAAT2) = biological target: T4, SLC1A2 (EAAT2) (Homo sapiens, UniProt P43004); experiment: TEVC in oocytes expressing glutamate transporter; settings: 10 µM L-glu current, read-out: IC50, block of glutamate current
T4 construct: expressed in transfected cells; host or cells: Xenopus laevis oocytes (cRNA injection)
Protocol: as §2, with “(asc-1/4f2). […] Finally, radiolabeled [^3H]D-serine uptake was used to assess the electroneutral SLC7A10+SLC3A2 transporter, in which 10 µM BPOHP had no effect (Figure S3).” for “(asc-1/4f2).”
as §3
as §4, with “Electrodes (0.2–1.0 MΩ) were filled with 3M KCl and the recording chamber was grounded with an agar bridge.” left out, “conductance. […]” for “conductance.”

T2 sequence (P43003 whole entry): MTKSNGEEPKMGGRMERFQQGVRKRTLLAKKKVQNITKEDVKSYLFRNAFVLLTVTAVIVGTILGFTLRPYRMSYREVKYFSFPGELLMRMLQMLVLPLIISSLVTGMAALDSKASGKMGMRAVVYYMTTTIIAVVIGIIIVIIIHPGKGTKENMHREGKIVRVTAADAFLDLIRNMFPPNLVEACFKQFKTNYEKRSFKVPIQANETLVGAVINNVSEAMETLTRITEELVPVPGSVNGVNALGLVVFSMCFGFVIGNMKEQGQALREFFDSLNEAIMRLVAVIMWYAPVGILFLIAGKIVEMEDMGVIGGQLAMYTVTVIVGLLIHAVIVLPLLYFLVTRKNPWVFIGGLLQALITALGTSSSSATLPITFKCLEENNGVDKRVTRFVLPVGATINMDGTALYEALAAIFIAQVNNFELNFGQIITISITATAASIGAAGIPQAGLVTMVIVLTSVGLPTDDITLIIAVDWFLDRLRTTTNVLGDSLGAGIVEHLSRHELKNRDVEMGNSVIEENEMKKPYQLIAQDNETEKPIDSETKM
T4 sequence (P43004 whole entry): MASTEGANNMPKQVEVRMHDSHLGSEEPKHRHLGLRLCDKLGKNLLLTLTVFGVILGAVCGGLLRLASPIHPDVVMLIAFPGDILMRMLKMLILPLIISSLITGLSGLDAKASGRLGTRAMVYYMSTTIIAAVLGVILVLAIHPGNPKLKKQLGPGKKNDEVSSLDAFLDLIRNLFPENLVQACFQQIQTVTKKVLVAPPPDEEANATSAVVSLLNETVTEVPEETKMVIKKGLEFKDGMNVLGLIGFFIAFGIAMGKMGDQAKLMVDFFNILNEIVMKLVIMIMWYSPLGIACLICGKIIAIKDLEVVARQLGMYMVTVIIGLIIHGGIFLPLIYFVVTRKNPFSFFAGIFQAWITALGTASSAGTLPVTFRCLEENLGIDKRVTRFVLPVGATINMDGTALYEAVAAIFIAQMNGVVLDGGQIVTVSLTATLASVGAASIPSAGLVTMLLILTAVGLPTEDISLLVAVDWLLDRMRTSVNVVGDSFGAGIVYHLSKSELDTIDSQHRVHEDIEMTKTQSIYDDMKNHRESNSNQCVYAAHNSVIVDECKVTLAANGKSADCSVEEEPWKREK

IC50 (SLC1A1 (EAAT3)): 19500 nM and 25300 nM
IC50 (SLC1A3 (EAAT1)): 1750 nM and 2450 nM
IC50 (SLC1A2 (EAAT2)): 1200 nM
Structure (SMILES): O=C(O)[C@H]1NC[C@@H](OCc2ccc(-c3ccccc3)cc2)[C@@H]1O [14e]
block of L-alanine current (SLC38A4 (ATA3)): no effect; also recorded: no discernible block; also recorded: no inhibition was detected
